Where two headings read alike, the source gives them in different places.

For one experiment, the system named is Sprague-Dawley rats. The experiment in a line: Enalapril or L-Arginine in hyperuricemic rats on low salt diet: blood pressure (Example 4). The format is in vivo, rat. As to conditions: for systolic blood pressure lower than the hyperuricemic controls: at 7 weeks, enalapril 1 mg/kg/d or L-Arginine 1% in drinking water, p<0.05; for effect on systolic blood pressure of hyperuricemic rats: treatment from the outset, 7 weeks. As to the method:
Rats were placed on either low salt diet, low salt diet with 2% oxonic acid, low salt diet with oxonic acid and enalapril (1 mg/kg/d in drinking water), or low salt diet with oxonic acid and L-Arginine (1% in drinking water).
Am J Physiol 268:F1 164-76, 1995].

For experiment [1] the following is noted: cited from earlier work.
The conditions of experiment [2]: cited from earlier work. The source holds these as a separate data set.

For `N=C(N)NCCC[C@H](N)C(=O)O` [L-Arginine], in the experiment with Sprague-Dawley rats, the “systolic blood pressure lower than the hyperuricemic controls” value was 25 mm Hg and the “effect on systolic blood pressure of hyperuricemic rats” value is listed as “largely prevented this increase”.
With `CCCCc1nc(Cl)c(CO)n1Cc1ccc(-c2ccccc2-c2nn[nH]n2)cc1` [Compound No. 9, losartan potassium], the “uric acid excretion in urine (Concentration of Uric Acid)” value (“uric acid excretion in urine” below) is 32.4 ± 14.7 mg/h in experiment [1] (25 mg/man oral, in hunger, 4-8 hr); 28.7 ± 13.6 mg/h in experiment [1] (25 mg/man oral, in hunger, 8-12 hr); 19.7 ± 9.9 mg/h in experiment [1] (25 mg/man oral, in hunger, 12-24 hr); 33.2 ± 21.9 mg/h in experiment [1] (25 mg/man oral, in hunger, 24-40 hr); 52.8 ± 4.3 mg/h in experiment [1] (50 mg/man oral, in hunger, 0-4 hr); 39.1 ± 4.4 mg/h in experiment [1] (50 mg/man oral, in hunger, 8-12 hr). In addition, the “uric acid excretion in urine” value is 22.2 ± 3.8 mg/h in experiment [1] (50 mg/man oral, in hunger, 12-24 hr); 26.6 ± 5.4 mg/h in experiment [1] (50 mg/man oral, in hunger, 24-40 hr); 75.9 ± 19.0 mg/h in experiment [1] (100 mg/man oral, after meal, 0-4 hr); 59.0 ± 3.8 mg/h in experiment [1] (100 mg/man oral, after meal, 4-8 hr); 31.8 ± 4.5 mg/h in experiment [1] (100 mg/man oral, after meal, 8-12 hr); 19.7 ± 2.5 mg/h in experiment [1] (100 mg/man oral, after meal, 12-24 hr). The “uric acid excretion in urine” value is 29.5 ± 4.1 mg/h in experiment [1] (100 mg/man oral, after meal, 24-40 hr); 81.2 ± 15.7 mg/h in experiment [1] (100 mg/man oral, in hunger, 0-4 hr); 36.4 ± 7.7 mg/h in experiment [1] (100 mg/man oral, in hunger, 4-8 hr); 30.1 ± 6.8 mg/h in experiment [1] (100 mg/man oral, in hunger, 8-12 hr); 19.2 ± 4.2 mg/h in experiment [1] (100 mg/man oral, in hunger, 12-24 hr); 28.0 ± 7.2 mg/h in experiment [1] (100 mg/man oral, in hunger, 24-40 hr). Besides, the “uric acid excretion in urine” value is 78.7 ± 15.3 mg/h in experiment [1] (200 mg/man oral, in hunger, 0-4 hr); 25.4 ± 6.6 mg/h in experiment [1] (200 mg/man oral, in hunger, 4-8 hr); 19.6 ± 5.2 mg/h in experiment [1] (200 mg/man oral, in hunger, 8-12 hr); 13.4 ± 2.3 mg/h in experiment [1] (200 mg/man oral, in hunger, 12-24 hr); 21.0 ± 3.0 mg/h in experiment [1] (200 mg/man oral, in hunger, 24-40 hr). Also, the “Concentration of Uric Acid in serum” value in experiment [2] (25 mg/man oral, in hunger, 0 hr (when administered)) is 5.2 ± 0.5 mg/dL; in experiment [2] (25 mg/man oral, in hunger, 4 hr), 4.8 ± 0.6 mg/dL; in experiment [2] (25 mg/man oral, in hunger, 24 hr), 4.6 ± 0.6 mg/dL; in experiment [2] (50 mg/man oral, in hunger, 0 hr (when administered)), 6.1 ± 1.4 mg/dL; in experiment [2] (50 mg/man oral, in hunger, 4 hr) it was 5.3 ± 1.3 mg/dL; in experiment [2] (50 mg/man oral, in hunger, 24 hr), 5.6 ± 1.4 mg/dL. The “Concentration of Uric Acid in serum” value is 4.9 ± 1.0 mg/h in experiment [2] (100 mg/man oral, after meal, 4 hr); 5.9 ± 0.9 mg/dL in experiment [2] (100 mg/man oral, in hunger, 0 hr (when administered)); 4.6 ± 0.7 mg/dL in experiment [2] (100 mg/man oral, in hunger, 4 hr); 5.2 ± 0.8 mg/dL in experiment [2] (100 mg/man oral, in hunger, 24 hr); 5.6 ± 0.7 mg/dL in experiment [2] (200 mg/man oral, in hunger, 0 hr (when administered)); 4.3 ± 0.9 mg/dL in experiment [2] (200 mg/man oral, in hunger, 4 hr). Further, the “Concentration of Uric Acid in serum” value in experiment [2] (200 mg/man oral, in hunger, 24 hr) was 5.0 ± 0.9 mg/dL.
With `CCOC(=O)[C@H](CCc1ccccc1)N[C@@H](C)C(=O)N1CCC[C@H]1C(=O)O` [enalapril], in the experiment on Sprague-Dawley rats, the “systolic blood pressure lower than the hyperuricemic controls” value stood at 25 mm Hg and the “effect on systolic blood pressure of hyperuricemic rats” value is on record as “lowest systolic blood pressures”.

The record behind these values is patent US7799794B2, “Treatment for cardiovascular disease” (Merck Sharp & Dohme Corp., priority 2000, dated 2010).
